The numbers were not newly measured in US7696242B2, “Hepatitis C inhibitor peptide analogs” (Boehringer Ingelheim International GmbH, priority 2004, dated 2010), which cites them from elsewhere.

For this data set, the system named is hepatitis C virus. Conditions: two day clinical trial, patients infected with the hepatitis C virus.

In the case of `COc1ccc2c(O[C@@H]3C[C@H]4C(=O)N[C@]5(C(=O)O)C[C@H]5/C=C\CCCCC[C@H](NC(=O)OC5CCCC5)C(=O)N4C3)cc(-c3csc(NC(C)C)n3)nc2c1` [BILN 2061], the “reduction of viral loads in patients” value is “effective in rapidly reducing viral loads”.
